Laboratory results: US7713696B2, “Genetic markers for prognosis of antifolate treatment efficacy” (Academisch Zeikenhuis Leiden H.O.D.N. Lumc, priority 2006, dated 2010)

Test system: recent-onset RA patients
Assay: Clinical response to methotrexate monotherapy (DAS) in genotyped patients of the BeSt trial
Type: in vivo, human
Conditions: for Good clinical response at six months, number of patients / Good clinical response at six months, percentage of patients: DAS≦2.4
From the text: The 247 patients enrolled in the study was a sub-cohort of 508 patients participating in the BeSt trial (25). Inclusion criteria for this trial were fulfilment of the American College of Rheumatology (ACR) 1987 criteria, age of 18 years or older, a disease duration of less than 2 years. All patients had to have an active disease defined as ≧6/66 swollen joints and ≧6/68 tender joints and either an ESR ≧28 mm/hr or a Visual Analogue Scale (VAS) for global health ≦20 mm (on a scale of 0-100, 0=worst, 100=best).
The BeSt trial is a randomized, multi-centre, single-blinded, clinical study comparing the clinical efficacy of four different treatment strategies in early rheumatoid arthritis; sequential monotherapy (n=126 starting with methotrexate), step-up to combination therapy with sulphasalazine (n=121 starting with methotrexate), initial combination therapy with methotrexate, sulphasalazine and a high tapered dose of prednisolone (n=133) or initial biologic therapy with infliximab and methotrexate (n=128). In the present study, only patients allocated to initial single use of methotrexate were selected (n=247).
The primary objective of treatment in the BeSt study was achieving good clinical response as defined by the DAS≦2.4 (26-28). The DAS is a validated composite outcome measure consisting of the Ritchie articular index (RAI), the number of swollen joints (SJC, out of 44), general well being as indicated by the patient on a visual analogue scale (VAS), and the Erythrocyte Sedimentation Rate (ESR). A research nurse who remained blinded for the allocated treatment group scored the DAS every three months.
All selected patients started with oral methotrexate 7.5 mg weekly, increased to 15 mg weekly after 4 weeks, combined with folic acid (1 mg per day). In case of insufficient clinical response at three months of follow-up (DAS>2.4), the dosage was increased stepwise to 25 mg weekly, either orally or parenterally as decided by the rheumatologist. If the clinical response remained insufficient with methotrexate 25 mg weekly, patients were treated according to the next step of the BeSt protocol; patients with methotrexate sequential monotherapy switched to sulphasalazine 1000 mg twice daily; patients with initial step-up combination therapy, sulphasalazine 1000 mg twice daily was added to methotrexate. Concomitant therapies with nonsteroidal anti-inflammatory drugs (NSAIDs), as well as intra-articular injections with corticosteroids, were allowed for all treatment groups. For current analysis, clinical data for the first six months of follow-up were used, representing methotrexate treatment only.
“Responders” were defined as patients with DAS ≦2.4 (good clinical response) based on EULAR response criteria (26-28) and ‘non-responders ’ as patients with DAS >2.4 at six months of follow up.
Differences in baseline characteristics were analysed by Student's t-test for continuous variables or Chi-square test for dichotomous variables. Differences in genotype distribution for response and toxicity were tested by 3 by 2 cross tabs for each genotype, and by 2 by 2 cross tabs for carriers versus non-carriers analysis with the two-sided Chi-square test. We used binary logistic analysis in case of differences in genotype distribution, to calculate odds ratios for achieving good response or experiencing adverse drug events. Age and gender were identified as possible confounders and were used as covariates in all regression analyses. The primary efficacy endpoint was good clinical response at six months (DAS≦2.4). DAS good clinical response status required patients to be present at a given time point; no values were carried forward. Secondary endpoints were good clinical improvement defined as change in DAS>1.2 (ΔDAS>1.2) and moderate clinical improvement defined as change in DAS>0.6 (ΔDAS>0.6). […]

Structure (SMILES): CN(Cc1cnc2nc(N)nc(N)c2n1)c1ccc(C(=O)N[C@@H](CCC(=O)O)C(=O)O)cc1 [methotrexate]
- Good clinical response, Methotrexate 15 mg weekly, number of responders/patients (AMPD1 CC genotype, six months): 25/36
- Good clinical response, Methotrexate 15 mg weekly, percentage (AMPD1 CC genotype, six months): (69%)
- Good clinical response, Methotrexate 25 mg weekly, number of responders/patients (AMPD1 CC genotype, six months): 30/98
- Good clinical response, Methotrexate 25 mg weekly, percentage (AMPD1 CC genotype, six months): (31%)
- Good clinical response at six months, number of patients (AMPD1 CC genotype): 57
- Good clinical response at six months, percentage of patients (AMPD1 CC genotype): (38%)
- good clinical response percentage at 6 months (AMPD1 CC genotyped patients): 42%
- Good clinical response, Methotrexate 15 mg weekly, number of responders/patients (AMPD1 CT genotype, six months): 15/15
- Good clinical response, Methotrexate 15 mg weekly, percentage (AMPD1 CT genotype, six months): (100%)
- Good clinical response, Methotrexate 25 mg weekly, number of responders/patients (AMPD1 CT genotype, six months): 13/29
- Good clinical response, Methotrexate 25 mg weekly, percentage (AMPD1 CT genotype, six months): (45%)
- Good clinical response at six months, number of patients (AMPD1 CT genotype): 28
- Good clinical response at six months, percentage of patients (AMPD1 CT genotype): (56%)
- percentage of good clinical response at six months (AMPD1 T-allele and ATIC CC (n=22)): 68
- percentage of good clinical response at six months (AMPD1 T-allele and ITPA CC (n=41)): 63
- times more likely to achieve good clinical response (AMPD1 T-allele carriers compared to AMPD1 CC, six months): 2.1 times
- good clinical response percentage at 6 months (AMPD1 T-allelic carriers): 60%
- Good clinical response, Methotrexate 15 mg weekly, number of responders/patients (AMPD1 TT genotype, six months): 1/1
- Good clinical response, Methotrexate 15 mg weekly, percentage (AMPD1 TT genotype, six months): (100%)
- Good clinical response, Methotrexate 25 mg weekly, number of responders/patients (AMPD1 TT genotype, six months): 0/2
- Good clinical response, Methotrexate 25 mg weekly, percentage (AMPD1 TT genotype, six months): (0%)
- Good clinical response at six months, number of patients (AMPD1 TT genotype): 1
- Good clinical response at six months, percentage of patients (AMPD1 TT genotype): (33%)
- percentage of good clinical response at six months (ATIC CC and ITPA CC (n=82)): 56
- patients in remission (DAS <1.6) at one-year of follow-up (ATIC CC genotype (n=97)): 35%
- Good clinical response, Methotrexate 15 mg weekly, number of responders/patients (ATIC CC genotype, six months): 22/25
- Good clinical response, Methotrexate 15 mg weekly, percentage (ATIC CC genotype, six months): (88%)
- Good clinical response, Methotrexate 25 mg weekly, number of responders/patients (ATIC CC genotype, six months): 28/61
- Good clinical response, Methotrexate 25 mg weekly, percentage (ATIC CC genotype, six months): (46%)
- Good clinical response at six months, number of patients (ATIC CC genotype): 51
- Good clinical response at six months, percentage of patients (ATIC CC genotype): (53%)
- good clinical response percentage at 6 months (ATIC CC patients): 58%
- Good clinical response, Methotrexate 15 mg weekly, number of responders/patients (ATIC CG genotype, six months): 15/22
- Good clinical response, Methotrexate 15 mg weekly, percentage (ATIC CG genotype, six months): (68%)
- Good clinical response, Methotrexate 25 mg weekly, number of responders/patients (ATIC CG genotype, six months): 14/60
- Good clinical response, Methotrexate 25 mg weekly, percentage (ATIC CG genotype, six months): (23%)
- Good clinical response at six months, number of patients (ATIC CG genotype): 30
- Good clinical response at six months, percentage of patients (ATIC CG genotype): (33%)
- good clinical response percentage at 6 months (ATIC G-allelic carriers): 37%
- Good clinical response, Methotrexate 15 mg weekly, number of responders/patients (ATIC GG genotype, six months): 4/5
- Good clinical response, Methotrexate 15 mg weekly, percentage (ATIC GG genotype, six months): (80%)
- Good clinical response, Methotrexate 25 mg weekly, number of responders/patients (ATIC GG genotype, six months): 2/9
- Good clinical response, Methotrexate 25 mg weekly, percentage (ATIC GG genotype, six months): (22%)
- Good clinical response at six months, number of patients (ATIC GG genotype): 6
- Good clinical response at six months, percentage of patients (ATIC GG genotype): (38%)
- good clinical response percentage at 6 months (ITPA A-allelic carriers): 26%
- Good clinical response, Methotrexate 15 mg weekly, number of responders/patients (ITPA CA genotype, six months): 3/5
- Good clinical response, Methotrexate 15 mg weekly, percentage (ITPA CA genotype, six months): (60%)
- Good clinical response, Methotrexate 25 mg weekly, number of responders/patients (ITPA CA genotype, six months): 4/22
- Good clinical response, Methotrexate 25 mg weekly, percentage (ITPA CA genotype, six months): (18%)
- Good clinical response at six months, number of patients (ITPA CA genotype): 7
- Good clinical response at six months, percentage of patients (ITPA CA genotype): (23%)
- Good clinical response, Methotrexate 15 mg weekly, number of responders/patients (ITPA CC genotype, six months): 38/47
- Good clinical response, Methotrexate 15 mg weekly, percentage (ITPA CC genotype, six months): (81%)
- Good clinical response, Methotrexate 25 mg weekly, number of responders/patients (ITPA CC genotype, six months): 39/107
- Good clinical response, Methotrexate 25 mg weekly, percentage (ITPA CC genotype, six months): (36%)
- Good clinical response at six months, number of patients (ITPA CC genotype): 79
- Good clinical response at six months, percentage of patients (ITPA CC genotype): (45%)
- good clinical response percentage at 6 months (ITPA CC genotyped): 50%
- percentage responders (DAS≦2.4) at six months (overall population): 47%
- response rate at six months (patients carrying all the favourable genotypes (n=16)): 88%
- odds ratio for achieving good clinical response (patients carrying all the favourable genotypes (n=16), logistic regression): 27.8
- response rate at six months (patients carrying all three unfavourable genotypes (n=10)): 10%
